Values quoted from earlier work in US11877989B2, “Nutritional supplement containing L-α-glycerophosphorylcholine” (Energy Beverages LLC, priority 2020, dated 2024).

Key:
subjects [1] = settings: in vivo
[2] = six weeks of supplementation
[3] = system: amnesia caused by scopolamine; settings: oral
beagles = settings: up to 300 mg/kg/day
[4] = single intramuscular dose
subjects [5] = system: subjects
[6] = in vivo and in vitro assays
[7] = system: patients after stroke or transient ischemic attacks; settings: 1000 mg daily for 28 days, then 400 mg three times per day for 5 months
rats [8] = settings: up to 1000 mg/kg/day
healthy male subjects = settings: 1000 mg ingested, 60 min after taking
rats [9] = system: rats
[10] = dose of 6 mg/kg
subjects [11] = settings: 600 mg per day, after 6 days

CC(C)C[C@H](NC(=O)CN(C)C(=N)N)C(=O)O [Creatyl-L-leucine, creatyl-L-leucine]
solubility relative to creatine and L-leucine: more soluble than either creatine or L-leucine

CCNC(=O)CC[C@H](N)C(=O)O [L-theanine, N^5-ethyl-L-glutamine]
cognitive function, including verbal fluency, versus placebo (subjects [1]): improved

C[N+](C)(C)CC(=O)[O-] [trimethylglycine]
effects of supplementation on body composition, arm size, bench press work capacity and urinary HCTL [2]: improve body composition, arm size, and bench press work capacity, and to attenuate the rise in urinary homocysteine thiolactone (HCTL)

L-α-glycerophosphorylcholine [α-GPC]
effect on amnesia caused by scopolamine in passive avoidance [3]: reverses amnesia
dose of peak effect ([3]; 5 h before training): 600 mg/kg
symptomology in sub-chronic and chronic oral toxicity studies (beagles): reduced activity; slight decreases in food consumption and body weight gain; and slight reduction in liver weight
return of plasma choline concentration to baseline [4]: returned to near baseline values over a six hour period
time of peak plasma choline levels [4]: within about half an hour after the injection
peak bench press force, greater (subjects [5]; 600 mg): 14%
increase of peak growth hormone levels (subjects [5]; 600 mg single dose): 44 fold
peak growth hormone level after supplementation (subjects [5]; 600 mg single dose): 8.4 ± 2.1 ng/mL
peak growth hormone level before supplementation (subjects [5]; 600 mg single dose, starting value): 0.19 ± 0.06 ng/mL
mutagenic activity [6]: devoid of mutagenic activity
oral LD50 (mice): ≥ 10,000 mg/kg
cognitive recovery [7]: assists in the cognitive recovery
symptomology in sub-chronic and chronic oral toxicity studies (rats [8]): reduced activity; slight decreases in food consumption and body weight gain; and slight reduction in liver weight
plasma growth hormone secretion versus placebo (healthy male subjects): increased significantly
oral LD50 (rats [9]): ≥ 10,000 mg/kg
improvement of accuracy during a reaction-time test [10]: 12%
increase of upper body power output [10]: 12%
lower body force production (subjects [11]): increased lower body force production
